From patent US20170252338A1, “MEDICINE” (KOWA COMPANY, LTD., priority 2014, published 2017)

Columns and labels:
[1] = Thermal stability test (residual ratio by HPLC after storage in glass bottles); format: physicochemical; details: for Residual ratio (%) After storage at 80° C. for 72 hours / Residual ratio (%) After storage at 100° C. for 24 hours / Residual ratio (%) After storage at 120° C. for 16 hours: glass bottles, HPLC area percentage
Protocol: A test compound was introduced into glass bottles, and the bottles were stored for certain time periods under temperature conditions of 80° C., 100° C., or 120° C. Subsequently, the residual ratio (%) of the pyrimidine compound (1) in the test compound was measured. Regarding the residual ratio, the proportion of the pyrimidine compound (1) contained in the test compound was measured as the peak area percentage using high performance liquid chromatography. In regard to the measurement by high performance liquid chromatography, an ODS column was used as a column, and a mixture of two kinds, namely, a 0.1% aqueous solution of TFA and a 0.1% acetonitrile solution of TFA, was used as a solvent. The detection wavelength was 242 nm. The residual ratio was calculated by the following calculation expression from the area percentage of the pyrimidine compound (1) thus obtained. Residual ratio (%)=Area percentage of pyrimidine compound (1) after storage/area percentage of pyrimidine compound (1) before storage×100 As the test compound, the crystals (crystals of pyrimidine compound (1) hydrochloride) obtained in Reference Example 1-3, and the free form of the pyrimidine compound (1) were used.

[2] = test system: LDL cholesterol in blood plasma; assay: Evaluation of combined use of statin and CETP inhibitor: blood plasma LDL cholesterol after two weeks oral administration in guinea pigs; format: in vivo, guinea pigs (Slc: Hartley); details: for Amount of LDL cholesterol in blood plasma: male guinea pigs, average ± standard deviation; for Amount of LDL cholesterol in blood plasma / Plasma LDL cholesterol lowering ratio: oral, two weeks
Protocol: Male guinea pigs (six weeks old, Slc: Hartley, Japan SLC, Inc.) were used for the experiment. Blood was collected from the jugular vein, and the guinea pigs were grouped on the basis of the total plasma cholesterol level and body weight.
After completion of repeated administration, blood was collected under anesthesia with pentobarbital, and the amount of LDL cholesterol in blood plasma (mg/dl. Hereinafter, described as “amount of LDL cholesterol in blood plasma”) was measured using high performance liquid chromatography according to the method by Usui, et al. (Usui et al., Clin. Chem., 46, 63-72 (2000)).
The group configuration consisted of the following four items, and six guinea pigs were used for each group.
(2) Pitavastatin single administration group: Pitavastatin calcium pentahydrate was orally administered at a dose of 1 mg/kg of body weight.
The amount of LDL cholesterol in blood plasma was obtained as an average value ±standard deviation.
Furthermore, the proportions of lowering of LDL cholesterol in blood plasma in the various drug administration groups (“plasma LDL cholesterol lowering ratios”) were calculated by the expression described below, from the average values of the amounts of LDL cholesterol in blood plasma of the control group and the various drug administration groups.
Plasma LDL cholesterol lowering ratio (%)=[(Cc−Ct)/Cc]×100
wherein Cc represents the average value of the amount of LDL cholesterol in blood plasma in the control group; and Ct represents the average value of the amount of LDL cholesterol in blood plasma of each of the various drug administration groups.
Furthermore, the average values of the amounts of LDL cholesterol in blood plasma of each of the various drug administration groups in a case in which the average value of the amount of LDL cholesterol in blood plasma of the control group was designated as 1, were calculated as relative indices.
Furthermore, determination of a synergistic effect according to Bulge formula was implemented.

[3] = Test Example 1-2, control group designated as 1, pitavastatin 1 mg/kg, anacetrapib 30 mg/kg
[4] = Test Example 1-2, pitavastatin 1 mg/kg, anacetrapib 30 mg/kg, control 18.5 ± 4.8
[5] = Test Example 1-2, vs control group, pitavastatin 1 mg/kg, anacetrapib 30 mg/kg
[6] = Test Example 1-1, [(Cc−Ct)/Cc]×100 vs control group, pitavastatin 1 mg/kg, pyrimidine compound (1) 30 mg/kg
[7] = Test Example 1-1, average plasma LDL cholesterol with control group designated as 1, pitavastatin 1 mg/kg, pyrimidine compound (1) 30 mg/kg
[8] = Test Example 1-1, pitavastatin calcium pentahydrate 1 mg/kg, pyrimidine compound (1) monohydrochloride 30 mg/kg, six per group, control 22.4 ± 2.9

SMILES | Residual ratio (%) After storage at 80° C. for 72 hours [1] | Residual ratio (%) After storage at 100° C. for 24 hours [1] | Residual ratio (%) After storage at 120° C. for 16 hours [1] | Thermal stability ([1]; conclusion from Table 10) | Relative index [2, 3] | Amount of LDL cholesterol in blood plasma [2, 4] | Plasma LDL cholesterol lowering ratio [2, 5] | Plasma LDL cholesterol lowering ratio [2, 6] | Relative index [2, 7] | Amount of LDL cholesterol in blood plasma [2, 8]
CCN(C[C@H]1CC[C@H](CC(=O)O)CC1)c1ccc(C(F)(F)F)cc1CN(c1ncc(OCCS(C)(=O)=O)cn1)[C@@H](C)c1cc(C(F)(F)F)cc(C(F)(F)F)c1.Cl [(S)-trans-{4-[({2-[({1-[3,5-bis(trifluoromethyl)phenyl]ethyl}{5-[2-(methylsulfonyl)ethoxy]pyrimidin-2-yl}amino)methyl]-4-(trifluoromethyl)phenyl}(ethyl)amino)methyl]cyclohexyl}acetic acid hydrochloride] | 100.0% | 100.0% | 99.5% | excellent thermal stability |  |  |  |  |  | 
COc1cc(F)c(C(C)C)cc1-c1ccc(C(F)(F)F)cc1CN1C(=O)O[C@H](c2cc(C(F)(F)F)cc(C(F)(F)F)c2)[C@@H]1C [Anacetrapib] |  |  |  |  | 0.98 | 18.2 ± 4.1 mg/dL | 2% |  |  | 
CCN(C[C@H]1CC[C@H](CC(=O)O)CC1)c1ccc(C(F)(F)F)cc1CN(c1ncc(OCCS(C)(=O)=O)cn1)[C@@H](C)c1cc(C(F)(F)F)cc(C(F)(F)F)c1 [Free form of pyrimidine compound (1), (S)-trans-{4-[({2-[({1-[3,5-bis(trifluoromethyl)phenyl]ethyl}{5-[2-(methylsulfonyl)ethoxy]pyrimidin-2-yl}amino)methyl]-4-(trifluoromethyl)phenyl}(ethyl)amino)methyl]cyclohexyl}acetic acid] | 99.5% | 89.3% | 71.5% |  |  |  |  |  |  | 
O=C(O)C[C@H](O)C[C@H](O)/C=C/c1c(C2CC2)nc2ccccc2c1-c1ccc(F)cc1 [Pitavastatin, (+)-monocalcium is[(3R,5S,6E)-7-[2-cyclopropyl-4-(4-fluorophenyl)-3-quinolyl]-3,5-dihydroxy-6-heptenoate}] |  |  |  |  | 0.62 | 11.5 ± 3.3 mg/dL | 38% | 31% | 0.69 | 15.5 ± 3.9 mg/dL
CCN(C[C@H]1CC[C@H](CC(=O)O)CC1)c1ccc(C(F)(F)F)cc1CN(c1ncc(OCCS(C)(=O)=O)cn1)[C@@H](C)c1cc(C(F)(F)F)cc(C(F)(F)F)c1 [Pyrimidine compound (1), (S)-trans-{4-[({2-[({1-[3,5-bis(trifluoromethyl)phenyl]ethyl}{5-[2-(methylsulfonyl)ethoxy]pyrimidin-2-yl}amino)methyl]-4-(trifluoromethyl)phenyl}(ethyl)amino)methyl]cyclohexyl}acetic acid] |  |  |  |  |  |  |  | 16% | 0.84 | 18.9 ± 3.8 mg/dL
